These results are taken from patent US20170258787A1, “PROPHYLACTIC AND/OR THERAPEUTIC AGENT FOR BEHAVIORAL AND PSYCHOLOGICAL SYMPTOMS ASSOCIATED WITH NEURODEGENERATIVE DISEASE OR IMPULSIVE SYMPTOMS ASSOCIATED WITH MENTAL DISEASE CONTAINING BREXPIPRAZOLE OR SALT THEREOF” (OTSUKA PHARMACEUTICAL CO., LTD., priority 2012, published 2017).

Series [1] concerns Wistar rat. Particulars: reported in Alcohol & Alcoholism 2001; 36:2-10; cited from earlier work.
In series [2] the test system is APPSL-Tg mouse. Briefly: Measurement of mouse circadian rhythm locomotor activity (spontaneous locomotor activity in dark period). It is filed as in vivo. Particulars: for spontaneous locomotor activity, dark period III (3:00-7:00), Night 1 / spontaneous locomotor activity, dark period III (3:00-7:00), Night 2 / spontaneous locomotor activity, dark period III (3:00-7:00), Night 3: APPSL-Tg mice. The source says:
1) Measurement of Mouse Circadian Rhythm Locomotor Activity
(§1) Animal: APPSL-Tg mouse (male) having Swedish and London APP mutations, and non-Tg mouse (male) free of a genetic mutation as a control were generated (Neuroscience Letters 2010; 469:273-277), bred in a breeding room, and used after they became 6-month-old. During the breeding, isolated housing was applied.
(§2) Measurement method: SUPERMEX manufactured by Muromachi Kikai Co., Ltd. was used for the measurement of circadian rhythm locomotor activity. The mouse was placed in an individual cage, and the spontaneous locomotor activity of the mouse was measured for 3 days (total 62.5 hr) under free-feeding, drinking water conditions. In this apparatus, a passive infrared sensor detects infrared rays emitted from the mouse, and the number of transpositions is counted. The measured values are totaled every 30 min, and automatically totaled using a specialized software CompACT AMS. The test was performed in a soundproof chamber, so that the spontaneous locomotor activity of the mouse would not be influenced. The lighting time in the soundproof chamber was set to 7:00-19:00 as in the breeding room.
The amounts of spontaneous locomotor activity of non-Tg mice and APPSL-Tg mice during the dark period of 19:00-7:00 were measured in advance. The mice were grouped in such manner as makes the mean and variance of the groups equal, using the body weight and the dark period spontaneous locomotor activity as indices.
Brexpiprazole was dissolved in distilled water containing 5% gum arabic, 5% gum arabic distilled water was used for the vehicle group, and they were orally administered to each mouse.
For 3 days, brexpiprazole and the vehicle were administered during the period of 17:30-18:30. After the administration, the measurement of the amount of locomotor activity was rapidly started or continued.
The statistical test was a two-sided test, and the significance level of the test was set to 5%. As a statistical software, SAS (R9.1, SAS Institute Japan Ltd.) was used.
Dunnett's test was performed based on the repeated measures ANOVA using a mixed model for Night 1-Night 3 at every phase I, II or III of the dark period. Furthermore, Dunnett's test was performed for every dark period and Night.

The test system of series [3] is Wistar rat. As to the kind of experiment: Measurement of alcohol intake by limited access paradigm. It is filed as in vivo. As to the method: Measurement method: An impulsive behavior of cravings for alcohol was evaluated as follows by reference to the method of Sinclair et al. (Alcohol 1992; 9:441-44 and Alcohol & Alcoholism 2001; 36:2-10). First, Wistar rat (male) was allowed to freely take 10% aqueous ethanol solution and tap water for several weeks under isolated housing. After stabilization of ethanol intake by each animal, a limited access paradigm allowing ethanol intake for only 1 hr per day was started, and the ethanol intake for 1 hr was measured every day. Ethanol intake was calculated from the results of the weight measurement of the water supply bottle filled with 10% aqueous ethanol solution immediately before the start of the limited access paradigm and immediately after completion thereof. An animal which was showing over 0.4 g/kg/hr in terms of 100% ethanol as an average ethanol intake in the limited access paradigm for 4 days immediately before drug evaluation was used. The limited access paradigm test was performed between 9:00 AM-12:00 PM. Brexpiprazole was suspended in distilled water containing 5% gum arabic. […] An average ethanol intake in the limited access paradigm of 4 days immediately before drug evaluation and an average ethanol intake in the limited access paradigm of 4 days after drug administration were analyzed by the 2-tailed paired t-test.

The subject of series [4] is Tg2576 mouse. As to the kind of experiment: Resident-Intruder test (aggression, biting). It is filed as in vivo. Particulars: 0.03 mg/kg oral 1 hr before test. From the text: Animal: Tg2576 mice (male) having a Swedish APP mutation (K670N, M671L) and non-Tg mice (male) free of the same genetic mutation as a control were purchased from Taconic, and bred and aged until 5- to 6-month-old of age. During the breeding, isolated housing was applied. Measurement method: For the experiment, Tg2576 or non-Tg mouse [Resident] and A/J mouse [Intruder] almost free of aggression were used. Resident formed a sufficient territory by isolated housing for 14 days. […] As the aggressive behavior, biting was noted, and the time necessary for the first biting and total number of biting for 10 min were measured. The measurement was performed within the dark period phase 1 (4 hr) when the amount of locomotor activity of the mouse is the highest. Tg2576 (48 mice) and non-Tg mice (10 mice) were subjected to a Resident-Intruder test in advance, and promotion of the to aggression of the Tg2576 mouse was confirmed. Five Tg2576 mice free of aggression were excluded and 43 mice were used for the test. The mice were grouped into 3 groups in such manner as makes the mean and variance of the groups equal, using the time necessary for the first attack and total number of biting for 10 min, which were obtained in the preliminary test, as indices (total 43 mice). […]

The subject of series [5] is Wistar rat. Briefly: Spontaneous locomotor activity under novel environments. It is filed as in vivo. Conditions: 0.1 mg/kg, data not indicated.
For series [6], the system named is c-fos-GFP mouse. As to the kind of experiment: Measurement of nerve activation pattern (GFP signal) of c-fos-GFP mouse. It is filed as in vivo. Conditions: brain isolated 3 hr later. As to the method: Measurement method: c-fos is an indirect marker for neuronal activity, which is expressed on activation of nerve cell. Using a transgenic mouse introduced with a green fluorescent protein (GFP) gene at the downstream of the promoter of c-fos gene (c-fos-GFP mouse), the nerve activation pattern in the brain was measured. Brexpiprazole or vehicle was administered, and the brain was isolated 3 hr later. GFP signals from serial sections of the whole brain were stored in a computer using a two-photon microscope and, after three-dimensional reconstruction, the nerve activation patterns of brexpiprazole (OPC-34712) and vehicle groups were quantitatively analyzed using the brain map information. Brexpiprazole was suspended in distilled water containing 5% gum arabic, and orally administered to c-fos-GFP mouse. Five to seven mice were used. The dose of brexpiprazole was 0.3 and 1 mg/kg. The significance level of the test was set to 5%. In the comparison between groups in each brain region, Tukey's multiple comparison test was conducted.

Series [7] has as its system non-Tg mouse. As to the kind of experiment: Measurement of mouse circadian rhythm locomotor activity in control mice. It is filed as in vivo.
Excerpt: as §1, §2
Brexpiprazole was administered to APPSL-Tg mouse immediately before the dark period (17:30-18:30) at a dose of 0.01 and 0.03 mg/kg, and the measurement of the spontaneous locomotor activity was started. […]

Series [8] deals with patients with highly severe Alzheimer's disease. Particulars: 12 weeks, Alzheimer's disease patients in nursing home, cited from earlier work.
In series [9] the test system is mouse having a Disc1 L100P point mutation. Particulars: Neuron 54(3): 387-402, 2007; cited from earlier work.
Series [10] relates to schizophrenia patients. Particulars: Psychiatric Services 2001, 52:1510-14; cited from earlier work.
Where [11] appears, read: 0.01 mg/kg oral, n = 6, mean ± standard error.
[12] abbreviates: 0.03 mg/kg oral, n = 5, mean ± standard error.

Turning to `C=C1CC[C@@]2(O)[C@H]3Cc4ccc(O)c5c4[C@@]2(CCN3CC2CC2)[C@H]1O5` [Nalmefene], the “effect in the limited access paradigm evaluation system” value in series [1] was “shows effect in this evaluation system”.

For `O=c1ccc2ccc(OCCCCN3CCN(c4cccc5sccc45)CC3)cc2[nH]1` [brexpiprazole, 7-[4-(4-benzo[b]thiophen-4-yl-piperazin-1-yl)butoxy]-1H-quinolin-2-one], the “spontaneous locomotor activity at Night 3, dark period phase III, vs vehicle (in words)” value in [2] (0.01 mg/kg oral, P<0.01) was “significantly suppressed the spontaneous locomotor activity at Night 3”; in [2] (0.03 mg/kg oral, P=0.068) it was “tended to suppress at Night 3”. The “spontaneous locomotor activity in dark period phase III compared to the vehicle group (Night 1-Night 3)” value in series [2] (0.01 mg/kg oral, P<0.05) is on record as “significantly suppress the spontaneous locomotor activity”; in series [2] (0.03 mg/kg oral, P=0.050) it was “significantly suppress the spontaneous locomotor activity”. Further, the results for the “spontaneous locomotor activity, dark period III (3:00-7:00), Night 1” value in series [2] (setting [11]) and in series [2] (setting [12]) were 7256 and 6014, respectively. Besides, the “spontaneous locomotor activity, dark period III (3:00-7:00), Night 2” value in [2] (setting [11]) was found to be 6466; in series [2] (setting [12]), 5443. Further, the “spontaneous locomotor activity, dark period III (3:00-7:00), Night 3” value in series [2] (0.01 mg/kg oral, n = 6, mean ± standard error, P < 0.01 vs vehicle) was found to be 4928; in [2] (0.03 mg/kg oral, n = 5, mean ± standard error, P = 0.068 vs vehicle), 6845. Also, in [3] (0.1 mg/kg oral for 4 days, five rats), the “ethanol intake observed individually” value is given as “all rats showed a decrease in the ethanol intake”. For the same compound, the “average ethanol intake in the limited access paradigm” value in series [3] (0.1 mg/kg oral once per day for 4 days, 1 hr before, vs 4 days before drug) is recorded as “statistically significant suppression of ethanol intake”. Besides, in [4] (P<0.05), the “time necessary for the first biting compared to the vehicle group” value is given as “significantly elongated”. For the same compound, the “number of biting for 10 min compared to the vehicle group” value in series [4] (P=0.0709) was “tended to show a decreased number of biting”. In addition, in series [5], the “influence on spontaneous locomotor activity under novel environments” value is “does not influence spontaneous locomotor activity”. In addition, the “GFP signal in the medial prefrontal cortex (ACA, PL, IL) relative to vehicle” value in [6] (0.3 mg/kg oral) and in series [6] (1 mg/kg oral) was “significantly increased GFP signal” throughout. For the same compound, the “spontaneous locomotor activity in dark period” value in series [7] is “did not decrease the spontaneous locomotor activity”.

With `COc1cc2c(cc1OC)C(=O)C(CC1CCN(Cc3ccccc3)CC1)C2` (stereo not drawn) [donepezil], in [8] (p value 0.95), the “NPI (Neuropsychiatric Inventory) score vs placebo” value is on record as “no statistically significant difference”. In series [8] (p value 0.98), the “CMAI (Cohen-Mansfield Agitation Inventory) score vs placebo” value is reported as “no statistically significant difference”.

Take `O=C(CCCN1CCC(O)(c2ccc(Cl)cc2)CC1)c1ccc(F)cc1` [haloperidol]: the schizophrenia-like behaviors result in series [9] is recorded as “reduced the schizophrenia-like behaviors”. In addition, in [10], the “hostility (positive scale of PANSS)” value is given as “aggravated hostility”.

Turning to `Cc1nc2n(c(=O)c1CCN1CCC(c3noc4cc(F)ccc34)CC1)CCCC2` [risperidone], in series [10], the “hostility (positive scale of PANSS)” value is recorded as “aggravated hostility”.
